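Cells were grown in 96-well plates and exposed to each compound for 48 hours at five concentrations; endpoints were interpolated linearly between bracketing concentrations, or set to the highest concentration if not reached. GI50 marks 50% less growth. The concentration for full growth arrest is given as TGI.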

Data on 8 compounds can be found in PubChem BioAssay (NCI).

Some test systems named below: MDA-MB-231 breast; SF-268 CNS; HCC-2998 colon; MCF7 breast; OVCAR-5 ovarian; NCI-H226 lung; RPMI-8226 leukemia; A549 NSCLC; UACC-257 melanoma; NCI-H460 lung.
Holding throughout (experiment): NCI anticancer screen, dose series, 48 h

As to `C/C(=N\Nc1cc(C)c2cc(C)ccc2n1)c1ccccn1`, the GI50 in the assay with MDA-MB-231 breast was less than 0.0303 µM; with SF-268 CNS it was 0.047 µM; in the assay with HCC-2998 colon it was less than 50.1 nM; with MCF7 breast, 86.6 nM; in the assay on NCI-H226 lung, 36.6 nM; in the assay with RPMI-8226 leukemia, 79 nM. Besides, the GI50 is less than 49 nM with A549 NSCLC, 0.0818 µM with UACC-257 melanoma and 0.187 µM in the assay on NCI-H460 lung. Further, the TGI stood at 1.54 µM with MDA-MB-231 breast; 1.62 µM in the assay with SF-268 CNS; 1.47 µM in the assay with HCC-2998 colon; 1.16 µM in the assay with MCF7 breast; 2.08 µM in the assay on OVCAR-5 ovarian; 1.05 µM in the assay with NCI-H226 lung. Moreover, the TGI with RPMI-8226 leukemia was determined as 1.96 µM; with A549 NSCLC, 1.14 µM; in the assay on UACC-257 melanoma, 0.312 µM; in the assay with NCI-H460 lung it was 1.22 µM.

For the compound `CCOC(=O)N1CCc2cc(OC)c(OC)c3c2c1cc1cc(OC)c(OC)cc13`, the TGI in the assay on MDA-MB-231 breast is more than 100 µM; in the assay with SF-268 CNS it was more than 100 µM; in the assay on HCC-2998 colon, 55.6 µM; with MCF7 breast it was 32.8 µM; in the assay on OVCAR-5 ovarian, more than 100 µM; in the assay with NCI-H226 lung, more than 100 µM. The TGI is 60.9 µM with RPMI-8226 leukemia, more than 100 µM in the assay with A549 NSCLC, more than 81.7 µM in the assay on UACC-257 melanoma and 28.5 µM in the assay with NCI-H460 lung.

On to `COc1cc(-c2nn(-c3cccc(NC(=O)Nc4cc(C(F)(F)F)cc(C(F)(F)F)c4)c3)cc2-c2ccncc2)ccc1Cl`, for which the GI50 with MDA-MB-231 breast was 0.675 µM; in the assay on SF-268 CNS it was 0.896 µM; in the assay with HCC-2998 colon, 1090 nM; with MCF7 breast it was 563 nM; in the assay with OVCAR-5 ovarian, 1.09 µM; in the assay on NCI-H226 lung, 1140 nM. Besides, the GI50 is 203 nM in the assay on RPMI-8226 leukemia, 438 nM in the assay with A549 NSCLC, 0.755 µM with UACC-257 melanoma and 0.366 µM with NCI-H460 lung. The TGI came to 1.43 µM with MDA-MB-231 breast; 2.3 µM in the assay on SF-268 CNS; 2.65 µM with HCC-2998 colon; 8.59 µM in the assay with MCF7 breast; 3.54 µM with OVCAR-5 ovarian; 11.7 µM with NCI-H226 lung. Besides, the TGI in the assay on RPMI-8226 leukemia worked out at 7.74 µM; in the assay with A549 NSCLC, 2.8 µM; with UACC-257 melanoma, 2.21 µM; with NCI-H460 lung, 1.64 µM.

Take `CC(C)[C@H](CO)Nc1nc(Nc2ccc(C(=O)NCCNS(=O)(=O)c3cccc4c(N(C)C)cccc34)c(Cl)c2)c2ncn(C(C)C)c2n1`: the GI50 in the assay with MDA-MB-231 breast was 1.58 µM; with SF-268 CNS it was 2.47 µM; in the assay on HCC-2998 colon, 2900 nM; in the assay on MCF7 breast, 987 nM; in the assay on OVCAR-5 ovarian it was 5.18 µM; with NCI-H226 lung, 2750 nM. In addition, the GI50 in the assay with RPMI-8226 leukemia is 2140 nM; with A549 NSCLC it was 2910 nM; in the assay with UACC-257 melanoma, 2.66 µM; with NCI-H460 lung, 3.45 µM. Moreover, the TGI is 9.16 µM in the assay with MDA-MB-231 breast; 34.2 µM in the assay on SF-268 CNS; more than 100 µM in the assay with HCC-2998 colon; more than 83 µM in the assay with MCF7 breast; more than 100 µM in the assay with OVCAR-5 ovarian; more than 40 µM in the assay on NCI-H226 lung. Further, the TGI in the assay on RPMI-8226 leukemia was 5.63 µM; in the assay with A549 NSCLC, more than 77.7 µM; in the assay on UACC-257 melanoma, more than 100 µM; with NCI-H460 lung, more than 100 µM.

Turning to `CC(C)(O)CS(=O)(=O)Nc1ccc2c(c1)CCN(C(=O)COc1cccnc1)C2`, the GI50 was more than 100 µM with MDA-MB-231 breast; more than 100 µM in the assay with SF-268 CNS; more than 26500 nM with HCC-2998 colon; 5100 nM with MCF7 breast; more than 100000 nM in the assay with NCI-H226 lung; 799 nM in the assay on RPMI-8226 leukemia. Also, the GI50 with A549 NSCLC was more than 100000 nM; with UACC-257 melanoma, more than 100 µM; in the assay on NCI-H460 lung, 11.5 µM. The TGI in the assay with MDA-MB-231 breast, in the assay with SF-268 CNS, with HCC-2998 colon, with MCF7 breast, in the assay on OVCAR-5 ovarian and in the assay with NCI-H226 lung was more than 100 µM in each case. Further, the TGI in the assay on RPMI-8226 leukemia, in the assay with A549 NSCLC, in the assay on UACC-257 melanoma and with NCI-H460 lung was more than 100 µM throughout.

For `CCCc1cc2c(=O)c(C(=O)OC)c[nH]c2cc1N(CC)CC`, the GI50 in the assay with MDA-MB-231 breast was 30.5 µM; with SF-268 CNS, 28.6 µM; with HCC-2998 colon, 76300 nM; in the assay with MCF7 breast, 73600 nM; with OVCAR-5 ovarian it was more than 100 µM; in the assay on NCI-H226 lung it was 34600 nM. Also, the GI50 with RPMI-8226 leukemia is 63200 nM; in the assay with A549 NSCLC it was 38300 nM; with UACC-257 melanoma it was more than 100 µM; in the assay on NCI-H460 lung it was 31.6 µM. Further, the TGI with MDA-MB-231 breast was 84.5 µM; in the assay with SF-268 CNS, 87.6 µM; with HCC-2998 colon it was more than 100 µM; in the assay with MCF7 breast, more than 100 µM; with OVCAR-5 ovarian, more than 100 µM; in the assay with NCI-H226 lung it was more than 100 µM. For the same compound, the TGI in the assay on RPMI-8226 leukemia, in the assay on A549 NSCLC, in the assay on UACC-257 melanoma and with NCI-H460 lung was more than 100 µM throughout.

Consider `O=C(Nc1cc(Cl)cc(Cl)c1)c1ccc(NC2=C(Cl)C(=O)N(Cc3ccc(Cl)cc3Cl)C2=O)cc1`, for which the GI50 was 19.6 µM with MDA-MB-231 breast; 8.87 µM in the assay with SF-268 CNS; 15000 nM in the assay with HCC-2998 colon; 3180 nM in the assay on MCF7 breast; more than 100 µM in the assay on OVCAR-5 ovarian; 14400 nM with NCI-H226 lung. Also, the GI50 with RPMI-8226 leukemia was 2530 nM; with A549 NSCLC it was more than 100000 nM; in the assay on UACC-257 melanoma, 24.8 µM; with NCI-H460 lung it was 16.6 µM. In addition, the TGI in the assay with MDA-MB-231 breast was 41.8 µM; in the assay on SF-268 CNS, 39.4 µM; in the assay on HCC-2998 colon, 36.9 µM; in the assay with MCF7 breast, 12.9 µM; with OVCAR-5 ovarian, more than 100 µM; in the assay with NCI-H226 lung, 35 µM. Further, the TGI with RPMI-8226 leukemia was 10.9 µM; with A549 NSCLC, more than 100 µM; in the assay on UACC-257 melanoma it was 53.1 µM; in the assay with NCI-H460 lung, more than 100 µM.

With `N[C@@H]1CCCC[C@H]1N.O=C([O-])C(=O)[O-].[Pt+4]`, the GI50 with MDA-MB-231 breast was more than 100 µM; with SF-268 CNS, 4.12 µM; in the assay on HCC-2998 colon, 618 nM; in the assay with MCF7 breast, 224 nM; in the assay with OVCAR-5 ovarian, 0.671 µM; in the assay on NCI-H226 lung, 2550 nM. The GI50 in the assay with RPMI-8226 leukemia is 52.8 nM; in the assay on A549 NSCLC, 615 nM; in the assay with UACC-257 melanoma, 10.7 µM; in the assay with NCI-H460 lung it was 0.435 µM. Besides, the TGI in the assay with MDA-MB-231 breast is more than 100 µM; in the assay with SF-268 CNS, more than 100 µM; in the assay with HCC-2998 colon it was 10 µM; with MCF7 breast, 6.63 µM; in the assay on OVCAR-5 ovarian, 21.2 µM; in the assay on NCI-H226 lung it was 17 µM. In addition, the TGI in the assay with RPMI-8226 leukemia was more than 91.2 µM; with A549 NSCLC it was more than 84.1 µM; in the assay on UACC-257 melanoma, more than 81.1 µM; in the assay with NCI-H460 lung, 38.3 µM.
